Test results from patent US6211155A, “Peptide conjugates derived from thymic hormones, their use as a medicament and compositions containing them” (Institut European de Biologie Cellulaire, priority 1995, dated 2001).
Where no end group is shown, it is not given here.

Assays:
[1] = test system: Thy 1.2+ thymocytes of the epidermis; assay: Thy 1.2+ epidermal cell density after topical application to mouse ear (immunofluorescence); format: in vivo, C57-BL/6 mice; conditions: for Number of Thy 1.2+ cells per mm^2 of epidermis, batch 1 / Number of Thy 1.2+ cells per mm^2 of epidermis, batch 2 / Number of Thy 1.2+ cells per mm^2 of epidermis, batch 3 / Number of Thy 1.2+ cells per mm^2 of epidermis, batch 4 / Number of Thy 1.2+ cells per mm^2 of epidermis, Mean: C 57 BL/6 mice; for Number of Thy 1.2+ cells per mm^2 of epidermis, Mean: 4 batches; for Thy 1.2+ cells % T: relative to PG controls
Experimental: (§1) I--Experimental Samples--Code: ETF
(§2) In solution in propylene glycol at a concentration of 10^-5 M/ml
(§3) 5 to 7-week-old male C 57-BL/6 mice, which are divided into groups of 4 per cage, and which have free access to water and food and which are subjected to a photoperiod of 12 h of light per 24 hours, are given a topical application of the peptide in propylene glycol (50 μl vol) on the dorsal surface of the ear daily for 5 consecutive days.
(§4) The animals are sacrificed on day 6. The ears are removed, with the dorsal and ventral surfaces being separated.
(§5) The tissues of the dorsal surface are immersed in Na EDTA (0.020 M) at 37° C. for 2 h.
(§6) After incubation, the epidermis is removed in the form of an intact sheet, fixed with acetone and rehydrated in PBS (phosphate buffer).
(§7) The Thy 1-2+ and Ia+ EDC (epidermal dendritic cells) are identified by indirect immunofluorescence double labeling.
(§8) In the case of each epidermal sheet, the number of cells per mm^2 is determined using the peripheral regions of the same surface.
The Thy 1.2+ EDC were identified by indirect immunofluorescence double labeling. The epidermal sheets were fixed with acetone and then rehydrated in PBS.
The tissues were labeled simultaneously, at 4° C. for 16 h, with mouse anti-Thy 1.2+ antibody which was diluted 1:100. The tissue samples were washed three times in PBS for 60 min and then incubated, at 37° C. for 60 min, either with goat antimouse antibody which was coupled to rhodamine and diluted 1:20, or with goat antirabbit antibody which was coupled to fluorescein (fluorescine and diluted 1:20 in PBS. The tissues were then washed in PBS before being mounted as previously described.
(§9) In the case of each epidermal sheet, the number of Ia+ Langerhans cells or Thy 1.2+ EDCs per square millimeter was determined by means of immunofluorescence, using a confocal Zeiss microscope which was equipped for this purpose, in four peripheral areas of the same surface. At least four animals were studied in each of the groups. The density of Ia+ Langerhans cells and Thy 1.2+ EDCs is shown for each measurement.

Ia+ Langerhans cells = assay: Ia+ Langerhans cell density after topical application to mouse ear; format: in vivo, C57-BL/6 mice; conditions: for Number of Ia+ cells per mm^2 of epidermis, batch 1 / Number of Ia+ cells per mm^2 of epidermis, batch 2 / Number of Ia+ cells per mm^2 of epidermis, batch 3 / Number of Ia+ cells per mm^2 of epidermis, batch 4 / Number of Ia+ cells per mm^2 of epidermis, Mean: C 57 BL/6 mice; for Number of Ia+ cells per mm^2 of epidermis, Mean: 4 batches; for Ia+ cells %: relative to PG controls
Experimental: as §1, §2, §3, §4, §5, §6, §7, §8
The EDC (epidermal dendritic cells) carrying the Ia+ marker were identified using an anti-Ia+ monoclonal antibody.
The epidermal sheets are fixed with acetone and then incubated, at 37° C. for 1 h, in the presence of the anti-Ia+ monoclonal antibody, which has been labeled by the indirect immunoperoxidase method (Kit).
After having been incubated at 37° C. for 10 minutes with a solution of aminoethylcarbazole, the preparation is washed with PBS.
as §9

| Substance | Number of Thy 1.2+ cells per mm^2 of epidermis, batch 1 ([1]; dose 0.10 Nanog.) [cells per mm^2] | Number of Thy 1.2+ cells per mm^2 of epidermis, batch 2 ([1]; dose 0.10 Nanog.) [cells per mm^2] | Number of Thy 1.2+ cells per mm^2 of epidermis, batch 3 ([1]; dose 0.10 Nanog.) [cells per mm^2] | Number of Thy 1.2+ cells per mm^2 of epidermis, batch 4 ([1]; dose 0.10 Nanog.) [cells per mm^2] | Number of Thy 1.2+ cells per mm^2 of epidermis, Mean ([1]; dose 0.10 Nanog.) [cells per mm^2] | Thy 1.2+ cells % T ([1]; dose 0.10 Nanog.) [%] | Number of Thy 1.2+ cells per mm^2 of epidermis, batch 1 ([1]; dose 0.50 Nanog.) [cells per mm^2] | Number of Thy 1.2+ cells per mm^2 of epidermis, batch 2 ([1]; dose 0.50 Nanog.) [cells per mm^2] | Number of Thy 1.2+ cells per mm^2 of epidermis, batch 3 ([1]; dose 0.50 Nanog.) [cells per mm^2] | Number of Thy 1.2+ cells per mm^2 of epidermis, batch 4 ([1]; dose 0.50 Nanog.) [cells per mm^2] | Number of Thy 1.2+ cells per mm^2 of epidermis, Mean ([1]; dose 0.50 Nanog.) [cells per mm^2] | Thy 1.2+ cells % T ([1]; dose 0.50 Nanog.) [%] | Number of Thy 1.2+ cells per mm^2 of epidermis, batch 1 ([1]; dose 1.00 Nanog.) [cells per mm^2] | Number of Thy 1.2+ cells per mm^2 of epidermis, batch 2 ([1]; dose 1.00 Nanog.) [cells per mm^2] | Number of Thy 1.2+ cells per mm^2 of epidermis, batch 3 ([1]; dose 1.00 Nanog.) [cells per mm^2] | Number of Thy 1.2+ cells per mm^2 of epidermis, batch 4 ([1]; dose 1.00 Nanog.) [cells per mm^2] | Number of Thy 1.2+ cells per mm^2 of epidermis, Mean ([1]; dose 1.00 Nanog.) [cells per mm^2] | Thy 1.2+ cells % T ([1]; dose 1.00 Nanog.) [%] | Number of Ia+ cells per mm^2 of epidermis, batch 1 (Ia+ Langerhans cells; dose 0.10 Nanog.) [cells per mm^2] | Number of Ia+ cells per mm^2 of epidermis, batch 2 (Ia+ Langerhans cells; dose 0.10 Nanog.) [cells per mm^2] | also measured |
| --- | --- | --- | --- | --- | --- | --- | --- | --- | --- | --- | --- | --- | --- | --- | --- | --- | --- | --- | --- | --- | --- |
| Adipoyl-Ala-Lys-Ser-Gln-Gly-Gly-Ser-Asn-NH2 (AKSQGGSN-NH2; not fully specified (N-terminus)) [ETF-III, A of the tested sample not restated] | 168 | 165 | 180 | 176 | 172.25 | 95 | 190 | 190 | 205 | 200 | 196.25 | 122 | 200 | 220 | 216 | 210 | 211.50 | 140 | 376 | 382 | Number of Ia+ cells per mm^2 of epidermis, batch 3 (Ia+ Langerhans cells; dose 0.10 Nanog.): 387 cells per mm^2; Number of Ia+ cells per mm^2 of epidermis, batch 4 (Ia+ Langerhans cells; dose 0.10 Nanog.): 399 cells per mm^2; Number of Ia+ cells per mm^2 of epidermis, Mean (Ia+ Langerhans cells; dose 0.10 Nanog.): 386.00 cells per mm^2; Ia+ cells % (Ia+ Langerhans cells; dose 0.10 Nanog.): 277%; Number of Ia+ cells per mm^2 of epidermis, batch 1 (Ia+ Langerhans cells; dose 0.50 Nanog.): 380 cells per mm^2; Number of Ia+ cells per mm^2 of epidermis, batch 2 (Ia+ Langerhans cells; dose 0.50 Nanog.): 388 cells per mm^2; Number of Ia+ cells per mm^2 of epidermis, batch 3 (Ia+ Langerhans cells; dose 0.50 Nanog.): 299 cells per mm^2; Number of Ia+ cells per mm^2 of epidermis, batch 4 (Ia+ Langerhans cells; dose 0.50 Nanog.): 388 cells per mm^2; Number of Ia+ cells per mm^2 of epidermis, Mean (Ia+ Langerhans cells; dose 0.50 Nanog.): 363.75 cells per mm^2; Ia+ cells % (Ia+ Langerhans cells; dose 0.50 Nanog.): 255%; Number of Ia+ cells per mm^2 of epidermis, batch 1 (Ia+ Langerhans cells; dose 1.00 Nanog.): 305 cells per mm^2; Number of Ia+ cells per mm^2 of epidermis, batch 2 (Ia+ Langerhans cells; dose 1.00 Nanog.): 400 cells per mm^2; Number of Ia+ cells per mm^2 of epidermis, batch 3 (Ia+ Langerhans cells; dose 1.00 Nanog.): 398 cells per mm^2; Number of Ia+ cells per mm^2 of epidermis, batch 4 (Ia+ Langerhans cells; dose 1.00 Nanog.): 410 cells per mm^2; Number of Ia+ cells per mm^2 of epidermis, Mean (Ia+ Langerhans cells; dose 1.00 Nanog.): 378.25 cells per mm^2; Ia+ cells % (Ia+ Langerhans cells; dose 1.00 Nanog.): 269% |
| A-Arg-Lys-Asp-Val-NH2 (RKDV; not fully specified (N-terminus, C-terminus)) [ETF-XIX, A not specified for the tested sample] | 216 | 210 | 219 | 212 | 214.25 | 143 | 220 | 215 | 228 | 216 | 219.75 | 149 | 227 | 238 | 230 | 225 | 230.00 | 161 | 360 | 390 | Number of Ia+ cells per mm^2 of epidermis, batch 3 (Ia+ Langerhans cells; dose 0.10 Nanog.): 378 cells per mm^2; Number of Ia+ cells per mm^2 of epidermis, batch 4 (Ia+ Langerhans cells; dose 0.10 Nanog.): 320 cells per mm^2; Number of Ia+ cells per mm^2 of epidermis, Mean (Ia+ Langerhans cells; dose 0.10 Nanog.): 362.00 cells per mm^2; Ia+ cells % (Ia+ Langerhans cells; dose 0.10 Nanog.): 253%; Number of Ia+ cells per mm^2 of epidermis, batch 1 (Ia+ Langerhans cells; dose 0.50 Nanog.): 388 cells per mm^2; Number of Ia+ cells per mm^2 of epidermis, batch 2 (Ia+ Langerhans cells; dose 0.50 Nanog.): 398 cells per mm^2; Number of Ia+ cells per mm^2 of epidermis, batch 3 (Ia+ Langerhans cells; dose 0.50 Nanog.): 386 cells per mm^2; Number of Ia+ cells per mm^2 of epidermis, batch 4 (Ia+ Langerhans cells; dose 0.50 Nanog.): 400 cells per mm^2; Number of Ia+ cells per mm^2 of epidermis, Mean (Ia+ Langerhans cells; dose 0.50 Nanog.): 393.00 cells per mm^2; Ia+ cells % (Ia+ Langerhans cells; dose 0.50 Nanog.): 283%; Number of Ia+ cells per mm^2 of epidermis, batch 1 (Ia+ Langerhans cells; dose 1.00 Nanog.): 400 cells per mm^2; Number of Ia+ cells per mm^2 of epidermis, batch 2 (Ia+ Langerhans cells; dose 1.00 Nanog.): 410 cells per mm^2; Number of Ia+ cells per mm^2 of epidermis, batch 3 (Ia+ Langerhans cells; dose 1.00 Nanog.): 438 cells per mm^2; Number of Ia+ cells per mm^2 of epidermis, batch 4 (Ia+ Langerhans cells; dose 1.00 Nanog.): 415 cells per mm^2; Number of Ia+ cells per mm^2 of epidermis, Mean (Ia+ Langerhans cells; dose 1.00 Nanog.): 415.75 cells per mm^2; Ia+ cells % (Ia+ Langerhans cells; dose 1.00 Nanog.): 306% |
| A-Arg-Lys-Asp-Val-Tyr-NH2 (RKDVY; not fully specified (N-terminus, C-terminus)) [ETF-XV, A not specified for the tested sample; b149 names acetic acid-Arg-Lys-Asp-Val-Tyr-NH2] | 160 | 158 | 160 | 170 | 162.00 | 84 | 176 | 168 | 170 | 186 | 175.00 | 98 | 198 | 180 | 188 | 199 | 191.25 | 117 | 315 | 326 | Number of Ia+ cells per mm^2 of epidermis, batch 3 (Ia+ Langerhans cells; dose 0.10 Nanog.): 320 cells per mm^2; Number of Ia+ cells per mm^2 of epidermis, batch 4 (Ia+ Langerhans cells; dose 0.10 Nanog.): 330 cells per mm^2; Number of Ia+ cells per mm^2 of epidermis, Mean (Ia+ Langerhans cells; dose 0.10 Nanog.): 322.75 cells per mm^2; Ia+ cells % (Ia+ Langerhans cells; dose 0.10 Nanog.): 215%; Number of Ia+ cells per mm^2 of epidermis, batch 1 (Ia+ Langerhans cells; dose 0.50 Nanog.): 305 cells per mm^2; Number of Ia+ cells per mm^2 of epidermis, batch 2 (Ia+ Langerhans cells; dose 0.50 Nanog.): 345 cells per mm^2; Number of Ia+ cells per mm^2 of epidermis, batch 3 (Ia+ Langerhans cells; dose 0.50 Nanog.): 330 cells per mm^2; Number of Ia+ cells per mm^2 of epidermis, batch 4 (Ia+ Langerhans cells; dose 0.50 Nanog.): 345 cells per mm^2; Number of Ia+ cells per mm^2 of epidermis, Mean (Ia+ Langerhans cells; dose 0.50 Nanog.): 331.25 cells per mm^2; Ia+ cells % (Ia+ Langerhans cells; dose 0.50 Nanog.): 223%; Number of Ia+ cells per mm^2 of epidermis, batch 1 (Ia+ Langerhans cells; dose 1.00 Nanog.): 348 cells per mm^2; Number of Ia+ cells per mm^2 of epidermis, batch 2 (Ia+ Langerhans cells; dose 1.00 Nanog.): 360 cells per mm^2; Number of Ia+ cells per mm^2 of epidermis, batch 3 (Ia+ Langerhans cells; dose 1.00 Nanog.): 348 cells per mm^2; Number of Ia+ cells per mm^2 of epidermis, batch 4 (Ia+ Langerhans cells; dose 1.00 Nanog.): 350 cells per mm^2; Number of Ia+ cells per mm^2 of epidermis, Mean (Ia+ Langerhans cells; dose 1.00 Nanog.): 351.50 cells per mm^2; Ia+ cells % (Ia+ Langerhans cells; dose 1.00 Nanog.): 243% |
